Measured values taken from ChEMBL document CHEMBL5518185, “Design, synthesis and antitumor activity of 4-arylamine substituted pyrimidine derivatives as noncovalent EGFR inhibitors overcoming C797S mutation” (Eur J Med Chem, 2024).
Calls of active or inactive are those of the source. The calls are words filed in the database; no cut-off is given here.

Key:
[1] = tested on: HCC827; assay: Antiproliferative activity against human HCC827 cells assessed as inhibition of cell growth measured after 72 hrs by MTT assay; assay type: functional, cell-based; settings: HCC827, 72 h
[2] = tested on: A549; assay: Antiproliferative activity against human A549 cells assessed as inhibition of cell growth measured after 72 hrs by MTT assay; assay type: functional, cell-based; settings: A549, 72 h
[3] = biological target: T1, Epidermal growth factor receptor (Homo sapiens, UniProt P00533); assay: Inhibition of wild type EGFR (unknown origin) preincubated for 10 mins followed by substrate addition and measured after 50 mins in presence of ATP by HTRF assay
T1 sequence (P00533 whole entry): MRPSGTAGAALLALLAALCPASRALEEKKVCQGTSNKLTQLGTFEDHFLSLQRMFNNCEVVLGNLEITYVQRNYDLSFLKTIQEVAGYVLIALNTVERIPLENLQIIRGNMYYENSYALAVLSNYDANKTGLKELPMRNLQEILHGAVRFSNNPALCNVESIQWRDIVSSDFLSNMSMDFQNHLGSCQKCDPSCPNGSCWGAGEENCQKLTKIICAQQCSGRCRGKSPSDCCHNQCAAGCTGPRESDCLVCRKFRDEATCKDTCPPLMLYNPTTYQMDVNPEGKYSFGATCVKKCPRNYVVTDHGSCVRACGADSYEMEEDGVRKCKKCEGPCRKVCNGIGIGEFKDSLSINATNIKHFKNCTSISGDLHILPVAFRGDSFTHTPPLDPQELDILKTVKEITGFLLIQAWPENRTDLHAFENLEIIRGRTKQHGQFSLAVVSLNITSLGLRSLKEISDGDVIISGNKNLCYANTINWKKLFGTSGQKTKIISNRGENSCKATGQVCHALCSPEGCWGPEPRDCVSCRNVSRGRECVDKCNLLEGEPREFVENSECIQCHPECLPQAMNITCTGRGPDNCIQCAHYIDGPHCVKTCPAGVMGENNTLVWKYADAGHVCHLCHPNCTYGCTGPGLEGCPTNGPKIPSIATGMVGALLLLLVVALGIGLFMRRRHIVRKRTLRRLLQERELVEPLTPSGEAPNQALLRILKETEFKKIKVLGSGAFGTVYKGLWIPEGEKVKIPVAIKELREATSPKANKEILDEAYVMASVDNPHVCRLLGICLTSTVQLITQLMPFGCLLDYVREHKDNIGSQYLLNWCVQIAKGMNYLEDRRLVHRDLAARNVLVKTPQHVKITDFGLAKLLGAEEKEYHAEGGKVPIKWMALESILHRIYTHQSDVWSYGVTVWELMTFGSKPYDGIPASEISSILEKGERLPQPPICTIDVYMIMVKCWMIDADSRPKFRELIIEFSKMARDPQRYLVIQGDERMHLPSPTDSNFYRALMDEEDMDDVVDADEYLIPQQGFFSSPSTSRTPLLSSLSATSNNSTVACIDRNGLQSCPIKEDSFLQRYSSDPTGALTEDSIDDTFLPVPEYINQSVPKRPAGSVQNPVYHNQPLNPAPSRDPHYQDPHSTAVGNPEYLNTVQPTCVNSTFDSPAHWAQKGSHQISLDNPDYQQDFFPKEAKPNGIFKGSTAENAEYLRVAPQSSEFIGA

[4] = biological target: Epidermal growth factor receptor (Homo sapiens, UniProt P00533, L858R/T790M); assay: Inhibition of EGFR L858R/T790M (unknown origin) preincubated for 10 mins followed by substrate addition and measured after 50 mins in presence of ATP by HTRF assay
[5] = biological target: Epidermal growth factor receptor (Homo sapiens, UniProt P00533, C797S/EX19DEL/T790M); assay: Inhibition of EGFR Del19/T790M/C797S triple mutant (unknown origin) preincubated for 10 mins followed by substrate addition and measured after 50 mins in presence of ATP by HTRF assay
[6] = biological target: T1, Epidermal growth factor receptor; assay: Inhibition of wild type EGFR (unknown origin) at 100 nM preincubated for 10 mins followed by substrate addition and measured after 50 mins in presence of ATP by HTRF assay relative to control; settings: time 60.0 min
[7] = biological target: Insulin-like growth factor 1 receptor (Homo sapiens) (UniProt P08069); assay: Inhibition of IGF-1R (unknown origin) by HTRF assay relative to control; settings: concentration not given here
Insulin-like growth factor 1 receptor (Homo sapiens), sequence (P08069 31-736 limits assumed): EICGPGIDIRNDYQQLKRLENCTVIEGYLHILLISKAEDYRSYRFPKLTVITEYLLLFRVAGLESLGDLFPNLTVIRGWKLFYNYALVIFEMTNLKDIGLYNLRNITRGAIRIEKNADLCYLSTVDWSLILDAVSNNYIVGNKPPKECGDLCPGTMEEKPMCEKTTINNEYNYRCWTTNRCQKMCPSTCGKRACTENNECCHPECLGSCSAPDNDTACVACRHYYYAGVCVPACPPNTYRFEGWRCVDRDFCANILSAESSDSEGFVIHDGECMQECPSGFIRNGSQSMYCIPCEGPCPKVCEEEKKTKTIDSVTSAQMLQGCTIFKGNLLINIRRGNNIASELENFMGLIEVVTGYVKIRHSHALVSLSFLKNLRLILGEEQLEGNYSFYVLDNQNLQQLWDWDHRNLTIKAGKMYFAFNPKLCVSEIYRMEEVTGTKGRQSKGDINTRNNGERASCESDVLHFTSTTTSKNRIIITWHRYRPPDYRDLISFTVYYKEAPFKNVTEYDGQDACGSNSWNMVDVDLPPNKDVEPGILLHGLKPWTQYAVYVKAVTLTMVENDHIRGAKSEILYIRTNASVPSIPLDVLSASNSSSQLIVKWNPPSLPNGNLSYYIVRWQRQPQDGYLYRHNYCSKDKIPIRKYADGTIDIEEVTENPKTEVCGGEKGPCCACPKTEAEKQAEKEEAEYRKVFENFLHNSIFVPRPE
Insulin-like growth factor 1 receptor (Homo sapiens), sequence (P08069 741-1367 limits assumed): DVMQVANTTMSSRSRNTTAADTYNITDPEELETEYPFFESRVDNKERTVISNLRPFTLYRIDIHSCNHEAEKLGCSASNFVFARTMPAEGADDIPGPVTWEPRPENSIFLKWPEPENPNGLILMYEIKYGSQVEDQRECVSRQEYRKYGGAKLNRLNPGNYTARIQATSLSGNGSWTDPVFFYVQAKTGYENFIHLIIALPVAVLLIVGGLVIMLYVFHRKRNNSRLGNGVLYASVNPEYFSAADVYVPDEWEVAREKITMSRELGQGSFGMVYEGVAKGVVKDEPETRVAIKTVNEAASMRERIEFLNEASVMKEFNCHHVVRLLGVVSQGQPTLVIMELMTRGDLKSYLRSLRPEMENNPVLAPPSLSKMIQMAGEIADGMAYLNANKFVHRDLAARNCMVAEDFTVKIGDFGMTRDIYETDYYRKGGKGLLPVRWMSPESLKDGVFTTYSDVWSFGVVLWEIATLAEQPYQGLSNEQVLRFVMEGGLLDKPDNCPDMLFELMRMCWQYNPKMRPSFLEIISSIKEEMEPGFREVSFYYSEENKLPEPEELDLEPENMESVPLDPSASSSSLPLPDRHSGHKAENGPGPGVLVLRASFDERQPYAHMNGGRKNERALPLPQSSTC

[8] = biological target: Dual specificity mitogen-activated protein kinase kinase; MEK1/2 (Homo sapiens) (UniProt P36507+Q02750); assay: Inhibition of MEK1/2 (unknown origin) by HTRF assay relative to control; assay type: protein assay; settings: concentration not given here
Dual specificity mitogen-activated protein kinase kinase; MEK1/2 (Homo sapiens), sequence (P36507 whole entry, looked up): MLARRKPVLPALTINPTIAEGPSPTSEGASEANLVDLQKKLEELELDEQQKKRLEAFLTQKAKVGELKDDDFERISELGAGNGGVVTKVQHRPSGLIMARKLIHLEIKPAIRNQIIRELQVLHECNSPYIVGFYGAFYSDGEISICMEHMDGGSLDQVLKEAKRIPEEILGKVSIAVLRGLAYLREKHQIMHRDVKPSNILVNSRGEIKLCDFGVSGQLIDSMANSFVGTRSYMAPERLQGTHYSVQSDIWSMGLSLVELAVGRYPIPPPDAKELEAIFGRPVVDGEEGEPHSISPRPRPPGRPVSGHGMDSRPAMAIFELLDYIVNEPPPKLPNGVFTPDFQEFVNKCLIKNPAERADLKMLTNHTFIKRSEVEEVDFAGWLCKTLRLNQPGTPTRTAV
Dual specificity mitogen-activated protein kinase kinase; MEK1/2 (Homo sapiens), sequence (Q02750 whole entry, looked up): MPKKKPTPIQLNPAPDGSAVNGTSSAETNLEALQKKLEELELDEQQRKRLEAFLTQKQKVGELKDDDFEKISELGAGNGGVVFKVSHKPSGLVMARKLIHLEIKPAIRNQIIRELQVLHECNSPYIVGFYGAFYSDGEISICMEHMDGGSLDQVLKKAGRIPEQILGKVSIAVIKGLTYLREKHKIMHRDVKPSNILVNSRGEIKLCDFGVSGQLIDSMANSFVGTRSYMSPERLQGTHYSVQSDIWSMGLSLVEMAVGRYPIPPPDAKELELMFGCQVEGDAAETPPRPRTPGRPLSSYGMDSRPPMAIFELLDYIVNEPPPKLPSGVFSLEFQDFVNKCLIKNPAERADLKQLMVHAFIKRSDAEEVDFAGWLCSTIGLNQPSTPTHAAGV

[9] = biological target: Serine/threonine-protein kinase mTOR (Homo sapiens) (UniProt P42345); assay: Inhibition of mTOR (unknown origin) by HTRF assay relative to control; settings: concentration not given here
[10] = biological target: Platelet-derived growth factor receptor alpha (Homo sapiens) (UniProt P16234); assay: Inhibition of PDGFR alpha (unknown origin) by HTRF assay relative to control; settings: concentration not given here
Platelet-derived growth factor receptor alpha (Homo sapiens), sequence (P16234 whole entry): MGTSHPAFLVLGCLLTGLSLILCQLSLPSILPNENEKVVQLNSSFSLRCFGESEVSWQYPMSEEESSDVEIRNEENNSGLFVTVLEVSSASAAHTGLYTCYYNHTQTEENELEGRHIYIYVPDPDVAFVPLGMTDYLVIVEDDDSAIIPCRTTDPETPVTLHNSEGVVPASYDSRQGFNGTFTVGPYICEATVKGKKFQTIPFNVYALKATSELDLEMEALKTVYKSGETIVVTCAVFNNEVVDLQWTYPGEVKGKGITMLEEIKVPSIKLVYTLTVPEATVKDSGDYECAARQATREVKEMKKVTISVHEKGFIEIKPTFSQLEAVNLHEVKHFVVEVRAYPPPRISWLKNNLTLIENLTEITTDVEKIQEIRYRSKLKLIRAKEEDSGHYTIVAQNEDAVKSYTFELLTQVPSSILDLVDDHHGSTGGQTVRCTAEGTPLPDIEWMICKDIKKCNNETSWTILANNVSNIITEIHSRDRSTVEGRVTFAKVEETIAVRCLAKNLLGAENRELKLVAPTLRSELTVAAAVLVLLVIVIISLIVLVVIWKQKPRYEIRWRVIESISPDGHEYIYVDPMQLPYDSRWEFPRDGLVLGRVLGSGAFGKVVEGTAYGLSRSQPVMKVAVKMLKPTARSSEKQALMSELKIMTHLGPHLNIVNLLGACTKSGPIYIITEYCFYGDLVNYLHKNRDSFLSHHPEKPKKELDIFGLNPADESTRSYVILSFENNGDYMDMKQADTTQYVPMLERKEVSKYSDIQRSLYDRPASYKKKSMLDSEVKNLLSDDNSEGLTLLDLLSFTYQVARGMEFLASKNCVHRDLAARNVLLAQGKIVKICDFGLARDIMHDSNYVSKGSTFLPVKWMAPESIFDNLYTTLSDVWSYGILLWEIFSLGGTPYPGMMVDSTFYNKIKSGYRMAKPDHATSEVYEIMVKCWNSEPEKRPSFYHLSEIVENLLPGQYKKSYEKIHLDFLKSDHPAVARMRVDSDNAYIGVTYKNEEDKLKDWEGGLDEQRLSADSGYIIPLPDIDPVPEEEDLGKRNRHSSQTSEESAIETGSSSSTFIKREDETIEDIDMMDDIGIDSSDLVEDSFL

[11] = biological target: RAF proto-oncogene serine/threonine-protein kinase (Homo sapiens) (UniProt P04049); assay: Inhibition of c-RAF (unknown origin) by HTRF assay relative to control; settings: concentration not given here
RAF proto-oncogene serine/threonine-protein kinase (Homo sapiens), sequence (P04049 whole entry): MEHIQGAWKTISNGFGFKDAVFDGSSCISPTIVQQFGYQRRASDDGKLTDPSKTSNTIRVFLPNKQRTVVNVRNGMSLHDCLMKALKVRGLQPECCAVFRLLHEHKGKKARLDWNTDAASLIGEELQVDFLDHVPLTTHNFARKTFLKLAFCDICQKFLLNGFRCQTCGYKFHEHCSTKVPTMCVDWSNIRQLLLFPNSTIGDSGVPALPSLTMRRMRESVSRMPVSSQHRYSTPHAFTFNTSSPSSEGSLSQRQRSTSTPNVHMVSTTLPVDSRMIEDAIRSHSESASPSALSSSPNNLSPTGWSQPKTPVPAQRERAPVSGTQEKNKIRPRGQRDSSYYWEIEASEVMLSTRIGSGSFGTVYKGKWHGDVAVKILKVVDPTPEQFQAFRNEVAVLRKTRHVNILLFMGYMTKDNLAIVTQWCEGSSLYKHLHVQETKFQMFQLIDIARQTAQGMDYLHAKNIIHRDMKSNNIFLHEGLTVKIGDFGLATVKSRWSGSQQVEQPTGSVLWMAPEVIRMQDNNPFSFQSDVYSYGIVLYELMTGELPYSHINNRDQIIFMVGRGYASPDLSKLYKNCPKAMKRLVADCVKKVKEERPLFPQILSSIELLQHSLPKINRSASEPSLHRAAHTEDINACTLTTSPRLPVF

[12] = species on record: Homo sapiens; assay: Inhibition of VGFR (unknown origin) by HTRF assay relative to control; settings: concentration not given here
[13] = tested on: HCC827; assay: Inhibition of colony formation in human HCC827 cells measured after 14 days by crystal violet staining based analysis; assay type: functional, cell-based; settings: HCC827, 336 h
[14] = tested on: HCC827; assay: Inhibition of colony formation in human HCC827 cells at 10 to 30 nM measured after 14 days by crystal violet staining based analysis; assay type: functional, cell-based; settings: dose 10-30 nM, time 14.0 day
[15] = tested on: HCC827; assay: Inhibition of colony formation in human HCC827 cells at 100 nM measured after 14 days by crystal violet staining based analysis relative to control; assay type: functional; settings: HCC827, 336 h, time 14 day
[16] = tested on: HCC827; assay: Induction of cell cycle arrest in human HCC827 cells assessed as accumulation of cells at G0/G1 phase at 10 nM measured after 24 hrs by PI staining based flow cytometry analysis (reference value: 54.36%); assay type: functional
[17] = tested on: HCC827; assay: Induction of cell cycle arrest in human HCC827 cells assessed as accumulation of cells at G0/G1 phase at 30 nM measured after 24 hrs by PI staining based flow cytometry analysis (reference value: 54.36%); assay type: functional
[18] = tested on: HCC827; assay: Induction of cell cycle arrest in human HCC827 cells assessed as accumulation of cells at S phase at 10 nM measured after 24 hrs by PI staining based flow cytometry analysis (reference value: 28.81%); assay type: functional
[19] = tested on: HCC827; assay: Induction of cell cycle arrest in human HCC827 cells assessed as accumulation of cells at S phase at 100 nM measured after 24 hrs by PI staining based flow cytometry analysis (reference value: 28.81%); assay type: functional
[20] = tested on: HCC827; assay: Induction of cell cycle arrest in human HCC827 cells assessed as accumulation of cells at G2/M phase at 30 nM measured after 24 hrs by PI staining based flow cytometry analysis (reference value: 16.83%); assay type: functional
[21] = tested on: HCC827; assay: Induction of cell cycle arrest in human HCC827 cells assessed as accumulation of cells at G2/M phase at 100 nM measured after 24 hrs by PI staining based flow cytometry analysis (reference value: 16.83%); assay type: functional
[22] = tested on: HCC827; assay: Inhibition of cell migration in human HCC827 cells at 10 to 100 nM measured upto 24 hrs by scratch-wound assay; assay type: functional, cell-based; settings: dose 10-100 nM
[23] = tested on: HCC827; assay: Induction of apoptosis in human HCC827 cells assessed as viable cells at 10 nM measured after 24 hrs by annexin V/PI staining based flu cytometry analysis (reference value: 84.0%); assay type: functional; settings: read-out: Activity
[24] = tested on: HCC827; assay: Induction of apoptosis in human HCC827 cells assessed as viable cells at 100 nM measured after 24 hrs by annexin V/PI staining based flu cytometry analysis (reference value: 84.0%); assay type: functional; settings: read-out: Activity
[25] = tested on: HCC827; assay: Induction of apoptosis in human HCC827 cells assessed as early apoptotic cells at 10 nM measured after 24 hrs by annexin V/PI staining based flu cytometry analysis (reference value: 3.2%); assay type: functional
[26] = tested on: HCC827; assay: Induction of apoptosis in human HCC827 cells assessed as early apoptotic cells at 100 nM measured after 24 hrs by annexin V/PI staining based flu cytometry analysis (reference value: 3.2%); assay type: functional
[27] = tested on: HCC827; assay: Induction of apoptosis in human HCC827 cells assessed as late apoptotic cells at 100 nM measured after 24 hrs by annexin V/PI staining based flu cytometry analysis (reference value: 5.50%); assay type: functional
[28] = tested on: HCC827; assay: Induction of apoptosis in human HCC827 cells assessed as necrotic cells at 30 nM measured after 24 hrs by annexin V/PI staining based flu cytometry analysis (reference value: 7.34%); assay type: functional
[29] = species on record: Homo sapiens; assay: Inhibition of AKT phosphorylation (unknown origin) at 100 nM by Western blotting analysis
[30] = tested on: HCC827; assay: Induction of apoptosis in human HCC827 cells assessed as activation of PARP level measured after 48 hrs by Western blot analysis; assay type: functional, cell-based; settings: dose 10-400 nM
[31] = tested on: HCC827; assay: Induction of apoptosis in human HCC827 cells assessed as activation of caspase-3 level measured after 48 hrs by Western blot analysis; assay type: functional, cell-based; settings: dose 10-400 nM
[32] = tested on: HCC827; assay: Antitumor activity against human HCC827 cells xenografted in BALB/c nude mouse assessed as tumor growth inhibition at 50 mg/kg/day, po measured every three days for 21 days by vernier caliper based analysis relative to control; assay type: functional; settings: HCC827, 504 h, time 21 day, read-out: TGI
[33] = Toxicity in BALB/c nude mouse assessed as effect on body weight loss at 10 to 50 mg/kg/day, po measured every three days for 21 days; assay type: organism-based; settings: in vivo, 504 h, dose 10-50 mg/kg/day, time 21 day
[34] = Toxicity in BALB/c nude mouse assessed as animal death at 10 to 50 mg/kg/day, po measured every three days for 21 days; assay type: organism-based; settings: in vivo, 504 h, dose 10-50 mg/kg/day, time 21 day

For `O=C(NO)c1sccc1Nc1nc(Nc2ccc(N3CCOCC3)cc2)ncc1Cl`, which IC50 [1] is on record?
The IC50 was 0.025 µM.

And the IC50 [2]?
The IC50 was 0.703 µM.

What about the IC50 [3] of the same compound?
The IC50 was 0.0162 µM.

What about the IC50 [4] of the same compound?
Its IC50 is 0.0439 µM.

What about the IC50 [5] of the same compound?
The IC50 was 0.0161 µM.

And the inhibition [6]?
Its inhibition is 99.5%.

What about the inhibition [7] of the same compound?
Its inhibition is under 70%.

And the inhibition [8]?
The inhibition was under 70%.

What about the inhibition [9] of the same compound?
Its inhibition is under 70%.

What about the inhibition [10] of the same compound?
Its inhibition is under 70%.

And the inhibition [11]?
The inhibition was under 70%.

And the inhibition [12]?
The inhibition was under 70%.

And the IC50 [13]?
Its IC50 is 0.0246 µM.

What about the inhibition [14] of the same compound?
The inhibition was “Active”.

What about the inhibition at 0.1 µM [15] of the same compound?
The inhibition at 0.1 µM was 100%.

What about the Activity [16] of the same compound?
Its Activity is 66.03%.

What about the Activity [17] of the same compound?
The Activity was 68.63%.

And the Activity [18]?
Its Activity is 16.41%.

What about the Activity [19] of the same compound?
Its Activity is 9.64%.

What about the Activity [20] of the same compound?
The Activity was 19.06%.

What about the Activity [21] of the same compound?
Its Activity is 46.13%.

What about the inhibition [22] of the same compound?
Its inhibition is “Active”.

And the viability at 0.01 µM [23]?
The viability at 0.01 µM was 77.6%.

What about the viability at 0.1 µM [24] of the same compound?
The viability at 0.1 µM was 76%.

And the Activity [25]?
Its Activity is 9.96%.

And the Activity [26]?
Its Activity is 3.41%.

What about the Activity [27] of the same compound?
The Activity was 14.3%.

And the Activity [28]?
Its Activity is 7.64%.

And the inhibition [29]?
The inhibition was “Active”.

What about the Activity [30] of the same compound?
Its Activity is “Dose-Dependent Effect”.

And the Activity [31]?
The Activity was “Dose-Dependent Effect”.

And the inhibition in vivo at 50 mg/kg/day [32]?
Its inhibition in vivo at 50 mg/kg/day is 89.5%.

What about the Activity [33] of the same compound?
The Activity was “Non-Toxic”.

What about the Activity [34] of the same compound?
The Activity was “Non-Toxic”.
